“Also recorded” adds a separate entry of the source.
Legend:
[1] = Double-blind controlled sweetness intensity test, sequential monadic, sip and spit (Example 1 protocol); type: in vivo, human
Source text: As used herein, the term “sweetness intensity” refers to the relative strength of sweet sensation as observed or experienced by an individual, e.g., a human, or a degree or amount of sweetness detected by a taster, for example on the scale from 0 (none) to 8 (very strong) (see Example 1) used in sensory evaluations according to the procedure described in American Society for Testing Materials, Special Technical Publication-434: “Manual on Sensory Testing Methods,” ASTM International, West Conshohocken, Pa. (1996). The sweetness enhancing effect of 300 μM Reb C (Chromadex, CA; purity 94.9%; 2.9% impurities other than water) on 5% (w/v-%) sucrose solution was evaluated in a double-blind controlled test conducted according to the following protocol. Three products were evaluated by trained judges as follows: • high concentration sucrose (7% w/v) • low concentration sucrose (5% w/v) • low concentration sucrose+sweetness enhancer (test compound) The products were evaluated using a sequential monadic test protocol. Subjects were given three samples to evaluate. Each subject was directed to swirl the first sample in his or her mouth for 3-5 seconds, expectorate the entire sample into a discard cup, and then assess the sweetness intensity of the sample. The intensity was rated on a score card by marking a numerical value along a scale from 0 to 8 (e.g., 0-none, 2=slight, 4=definite, 8=very strong). Following the decision regarding the sweetness intensity, subjects were instructed to rinse their mouth with water and spit in the discard cup. Subjects then were given unsalted crackers to cleanse the palate. A period of 10 minutes elapsed between presentations of each sample to reduce the potential influence of residual taste effects. A second sample was then presented and evaluated as above and the same procedure was followed until all three products were evaluated. Sample presentation was randomized to avoid order of presentation bias. To participate in the sensory panel, judges or subjects were chosen from an expert taste panel. These subjects were screened for taste acuity and were trained in evaluating solutions using the sip and spit protocol and were trained in using a rating ballot. The number of judges who participated in the study was 20. The female subjects were all non-pregnant and all volunteers were of <55 years of age with no history of allergy to sucrose. Judges were asked to execute an informed consent form. Specifically, the following instructions were given to the judges: Please take a sip of water. Carefully take the cap off the sample cup placed in front of you. Sip, swirl for 3-5 seconds, and then spit the sample into the cup provided, then assess the intensity of the sweetness of the sample. Please evaluate the sample for the intensity of the sweet flavor and put a vertical mark on the number that best describes the intensity. Rinse your mouth with the water provided and spit into the discard cup. Use crackers provided to cleanse your palate before evaluating the next sample. If any other flavor was present in the sample please describe it. Please rinse your mouth again several times and have some more water and unsalted crackers. You will now have a rest period of 10 minutes before you will be given the next sample.

[2] = cited from earlier work
[3] = Open qualitative taste report of Reb C water solutions; type: in vivo, human; settings: 250 and 300 μM Reb C in water; all 4 subjects gave the same description
Procedure: The taste of 250 μM and 300 μM Reb C solutions were evaluated as follows by another test group having four (4) subjects as follows: 10 ml solutions of 250 and 300 μM Reb C in water were sampled by four subjects who were asked to report their qualitative taste experience of the solutions.

[4] = Quantitative taste profile by trained panel (sweet, bitter, salt, sour, licorice); type: in vivo, human
Procedure: The taste of 150, 300, and 600 μM Reb C was evaluated by a test group. 10 panelists were trained over a period of a few weeks to provide a quantitative flavor profile of Reb C. Panelists first were trained using standard tastants representing the different taste modalities given in FIG. 7 (i.e., sweet, bitter, salt, sour, and licorice). They then were trained to use the scales when flavors were mixed together. All intensity ratings are on scales ranging from 0 (no taste) to 8 (highest intensity). The intensity rating for sweet is essentially the same as used in Examples 1 and 6. The taste profiles were obtained for 150, 300, and 600 μM Reb C. Reb A (0.2 mg/ml, a concentration used in some food/beverage applications for sweetening) was also evaluated in the test for comparison. The scale is not linear at the bottom. A rating of 1 is around the threshold for sweetness detection.

[5] = Double-blind controlled sweetness intensity test, sequential monadic, taste and swallow (Example 6 protocol); type: in vivo, human
[6] = Forced-choice taste test of Reb C water solution versus water; type: in vivo, human; settings: 250 μM Reb C water solution
Procedure: The taste of a 250 μM Reb C solution was evaluated by a test group having five (5) subjects as follows (Forced-choice): Subjects were presented with 2 cups, each containing 10 ml of either 250 μM Reb C water solution or water (room temperature). […] Subjects were asked to sip most or all of the 10 ml from the first cup, swish the liquid in their oral cavity, and expectorate into a cup, then rinse their mouths vigorously with water. Soon thereafter, the contents of the second cup were sampled in the same manner. Then, subjects were asked to choose the sweeter of the two samples, or if not sweet, to describe the qualitative taste profile of the sample having a detectable taste.

[7] = sweetness intensities equivalent to 3% (w/v-%) sucrose
[8] = sweetness intensities equivalent to 7% (w/v-%) sucrose
[9] = 300 μM Reb C in 8% (w/v-%) fructose solution, FIG. 16

## OC[C@H]1O[C@@](CO)(O[C@H]2O[C@H](CO)[C@@H](O)[C@H](O)[C@H]2O)[C@@H](O)[C@@H]1O [sucrose, α-D-glucopyranosyl-(1->2)-β-D-fructofuranose, reference compound]
[1]; 11% (w/v-%) sucrose solution, high concentration comparator, scale 0 to 8
  mean sweetness intensity score: 6.95

## C=C1C[C@@]23CC[C@H]4[C@@](C)(CCC[C@@]4(C)C(=O)O[C@@H]4O[C@H](CO)[C@@H](O)[C@H](O)[C@H]4O)[C@@H]2CC[C@]1(O[C@@H]1O[C@H](CO)[C@@H](O)[C@H](O[C@@H]2O[C@H](CO)[C@@H](O)[C@H](O)[C@H]2O)[C@H]1O[C@@H]1O[C@H](CO)[C@@H](O)[C@H](O)[C@H]1O)C3 [rebaudioside A]
[2]; [7]
  effect in mixtures with fructose and glucose: additive effect
  effect in mixtures with sucrose: synergistic effect
[2]; sweetness intensities equivalent to 5% (w/v-%)
  effect in mixtures with fructose, glucose and sucrose: additive effect
[2]; [8]
  effect with a mixture with sucrose: additive effect
  effect with mixtures with glucose and fructose: suppressive effect

## C=C1C[C@@]23CC[C@H]4[C@@](C)(CCC[C@@]4(C)C(=O)O[C@@H]4O[C@H](CO)[C@@H](O)[C@H](O)[C@H]4O)[C@@H]2CC[C@]1(O[C@@H]1O[C@H](CO)[C@@H](O)[C@H](O[C@@H]2O[C@H](CO)[C@@H](O)[C@H](O)[C@H]2O)[C@H]1O[C@@H]1O[C@@H](C)[C@H](O)[C@@H](O)[C@H]1O)C3 [Reb C, Rebaudioside C]
[3]
  qualitative taste description: Both concentrations bitter and/or licorice
[1]; 150 μM Reb C in 8% (w/v-%) sucrose solution, FIG. 4
  sweetness of sucrose solution in combination with Reb C: between that of the 8% (w/v-%) sucrose solution and that of an 11% (w/v-%) sucrose solution
[1]; 300 μM Reb C in 5% (w/v-%) fructose solution, FIG. 2
  sweetness of fructose solution in combination with Reb C: close to that of a 7% (w/v-%) fructose solution
[1]; 300 μM Reb C in 5% (w/v-%) sucrose solution, 20 judges, scale 0 to 8, FIG. 1
  sweetness of sucrose solution in combination with Reb C: indistinguishable from that of a 7% (w/v-%) sucrose solution
[1]; 300 μM Reb C in 8% (w/v-%) sucrose solution, FIG. 3
  sweetness of sucrose solution in combination with Reb C: close to that of an 11% (w/v-%) sucrose solution
[1]; 8% (w/v-%) sucrose solution with 150 μM Reb C, scale 0 to 8, 8% sucrose solution alone scored 5.30
  mean sweetness intensity score: 6.10
[4]; 150, 300 and 600 μM Reb C alone, FIG. 7
  unpleasant tastes, bitter and licorice: barely detected
[4]; 150, 300 and 600 μM Reb C, 10 panelists, scale 0 to 8, FIG. 7
  intrinsic sweetness: little or no intrinsic sweetness
[4]; Reb C combined with sugar
  unpleasant tastes, bitter and licorice, when combined with sugar: undetected
[5]; [9]
  statistical significance of the effect of Reb C: not statistically significant
  sweetness of fructose solution in combination with Reb C: between that of the 8% (w/v-%) fructose solution and that of an 11% (w/v-%) fructose solution
[5]; 300 μM Reb C in iced tea with 8% (w/v-%) sucrose, FIG. 6
  sweetness of iced tea with sucrose in combination with Reb C: between that of the 8% (w/v-%) sucrose solution and that of an 11% (w/v-%) sucrose solution
[5]; 300 μM Reb C in iced tea with 10.39% (w/v-%) HFCS55, 20 judges, FIG. 5
  sweetness of iced tea with HFCS55 in combination with Reb C: indistinguishable from that of a 14.29% (w/v-%) HFCS55 (HFCS) solution
[5]; 190 ppm Reb C, 10.39% (w/v-%) HFCS55, buffered with citric acid, pH 2.7-2.8, FIG. 10
  sweetness intensity of cola beverage with HFCS55 in combination with Reb C: significantly increases the sweetness intensity to that of 14.29% HFCS55
[5]; 190 ppm Reb C, 10.39% (w/v-%) HFCS55, buffered with phosphoric acid, FIG. 14
  sweetness of cola beverage with HFCS55 in combination with Reb C: not higher than that of 10.39% (w/v-%) HFCS55 cola beverage alone
[5]; 190 ppm Reb C, 10.39% (w/v-%) HFCS55, citric acid 0.15%, pH 2.6-2.7, FIG. 12
  sweetness of lemon-lime soda with HFCS55 in combination with Reb C: did not reach the sweetness of a 14.29% (w/v-%) HFCS55 solution
[5]; 285 ppm (300 μM) Reb C in 7.14% erythritol solution, equivalent to 5% (w/v-%) sucrose, FIG. 9
  sweetness of erythritol solution in combination with Reb C: significantly sweeter than the 7.14% erythritol solution alone, but did not achieve the sweetness of a 10% erythritol solution
[5]; 310 ppm Reb C, 10.39% (w/v-%) HFCS55, buffered with phosphoric acid, FIG. 15
  sweetness intensity of cola beverage with HFCS55 in combination with Reb C: increased significantly the sweetness intensity of a cola beverage containing 10.39% (w/v-%) HFCS55, but did not reach the sweetness of a 14.29% (w/v-%) HFCS55 cola beverage
[5]; concentrations 190 ppm or below (95, 190 and 285 ppm tested), FIG. 11
  sweetness of unsweetened cola beverage with Reb C: does not increase the sweetness of an unsweetened cola beverage
[5]; control group of Example 11, concentrations 190 ppm or below (95, 190 and 285 ppm tested)
  sweetness of unsweetened lemon-lime soda with Reb C: does not increase the sweetness of an unsweetened cola beverage
[6]; 5 subjects, forced-choice
  identification of the sample containing Reb C versus water: All subjects correctly identified the sample containing Reb C
[6]; subjects 1 to 5
  qualitative taste description, one per subject: Metallic, not sweet; also recorded: Aversive (“Nasty”); also recorded: Slight sweet, astringent; also recorded: Faintly sweet; also recorded: Slight sweet/licorice

Reference: patent US20150064328A1, “REBAUDIOSIDE C AND ITS STEREOISOMERS AS NATURAL PRODUCT SWEETNESS ENHANCERS” (Redpoint Bio Corporation, priority 2009, published 2015)
